According to paper PMC10889360, “Therapeutic targeting Tudor domains in leukemia via CRISPR-Scan Assisted Drug Discovery” (Science Advances, 2024):
Counter-ions that a name gives are not always drawn. Like-named read-outs stand apart in the source and are kept apart here. No end group written: not given here. Me3 = trimethyl (trimethyl-lysine)

T1: recombinant His6-tagged SGF29 tandem Tudor domain (SGF29-TTD), residues Met114 to Lys293 (human, UniProt Q96ES7 114-293)
T1 construct: SAGA-associated factor 29 (SGF29), human, tandem Tudor domain, residues Met114 to Lys293, UniProt Q96ES7; 22.9 kDa with the tag; Codon-optimised cDNA with synonymous changes only; No tag cleavage is described; the chain is detected by the nickel chelate AlphaScreen beads; The forward primer carries the end of a TEV site (ENLYFQS) from the vector before Met114; also called SGF29_Tudor 2; …
T1 sequence (looked up): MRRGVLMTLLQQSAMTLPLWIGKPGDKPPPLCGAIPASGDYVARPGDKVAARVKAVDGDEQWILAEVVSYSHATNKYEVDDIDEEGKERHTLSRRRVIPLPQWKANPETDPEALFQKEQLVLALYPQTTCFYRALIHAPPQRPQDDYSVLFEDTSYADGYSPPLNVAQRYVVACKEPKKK


What was measured:
[1] = system: U251 (U-251); assay: cells; parameters: species or system MV4-11; U251; details: for viability at 10 µM: Homo sapiens, read-out: % viability; for % viability: 10 µM
Description: (§1) Compound information and source are listed in data S9. For Cpd_DC60, the initial small scale was obtained from the NCI Developmental Therapeutics Program (NCI/DTP) Open Chemicals Repository. Additional Cpd_DC60 was then custom synthesized by Ambinter (Orléans, France). MV4-11 cells were seeded at 20,000 cells per well, and U251 cells were seeded at 10,000 cells per well. Cells were cultured in 96-well plates at 100 μl per well and replated with fresh medium and compound every 3 days for up to 9 days. At each time point, 15 μl of the CellTiter-Glo 2.0 assay reagent (G9242, Promega) and 20 μl of resuspended cells were mixed in white flat-bottom 96-well plates (353296, Corning), and subsequently, the resultant luminescence was measured using an Infinite M1000 Pro plate reader (Tecan Trading AG, Switzerland). The relative CellTiter Glo signal was normalized to the control condition (DMSO) at each reading time point. Next, we examined the response of SGF29-dependent MV4-11 leukemia cells and the SGF29-independent U251 glioblastoma cells (see Fig. 1H) to these 190 candidate compounds (plus 15 reference compounds) using a CellTiter Glo screen. […] Compared to the pan-cancer inhibitors I-BET151 [inhibits the bromodomain of Bromodomain and Extra-Terminal motif (BET)] ([36]) and JQ1 (blocks BRD4 bromodomain) ([10]), we observed several known leukemia-targeting compounds (EPZ-5676, OICR-9429, A-485, and A-366) ([37]–[40]) within the 19 MV4-11 selective inhibitors (detailed in fig. S7A). On the basis of the selective killing against MV4-11 (Δ Score, i.e., differential CellTiter Glo % between MV4-11 and U251 on day 9), we then chose the top six ranked candidate compounds (Cpd_DC60, 201, 11, 157, 182, and 21) for further investigation (fig. S7B). […] Identification of SGF29 lead inhibitor by CRISPR-SADD workflow. (A) Schematic outline of the Sgf29 high-density CRISPR tiling scan in MLL-AF9-Cas9^+ cells. (B) Two-dimensional annotation of Sgf29 CRISPR-Scan. The blue line indicates the smoothened model of the CRISPR-Scan score derived from 147 sgRNAs (dots) targeting the coding exons of Sgf29. The median NCS scores of the positive control (red dotted line; defined as −1.0) and negative control (green dotted line; defined as 0.0) sgRNAs are highlighted. The blue dashed box indicates the SGF29-TTD domain. (C) Three-dimensional annotation Sgf29 CRISPR-Scan score relative to an x-ray crystal structural model of human SGF29-TTD (PDB ID: 3ME9). The CRISPR hypersensitive (red) aromatic cage of SGF29 Tudor_2 domain is highlighted. (D) Docking box (cube) defined by overlapping the PrankWeb predicted ligandable protein surface (surface contour marked by the dotted pink-line) with the CRISPR hypersensitive region of SGF29-TTD (red areas). (E) Heatmap showing the relative CellTiter Glo signal [% to dimethyl sulfoxide (DMSO) control] of MV4-11 and U251 cells incubated with 205 selected compounds (10 μM) for 3, 6, and 9 days. The effective killing was defined as less than 10% relative CellTiter Glo signal on day 9. Four clusters of compounds are identified, including the U251 selective (7 cpds), noneffective (157 cpds), general toxic (22 cpds), and MV4-11 selective (19 cpds) groups. (F and G) Western blot of (F) MOLM13 cells and (G) MV4-11 cells incubated with Cpd_DC60 (20 μM) for 48 hours. (H) Effect of Cpd_DC60 on the SGF29-TTD/H3K4me3 AlphaScreen signal. (I) Left: Docking simulation model of SGF29-TTD (colored by NCS) interacts with Cpd_DC60 (yellow). Right: Overlap of SGF29-TTD/H3K4me3 (cyan) cocrystal structure (PDB ID: 3ME9) with the predicted Cpd_DC60 (yellow) binding post on SGF29-TTD. The “aromatic cage” that consists of Y238, Y245, and F264 is indicated. a.a., amino acid. IC50, median inhibitory concentration.

[2] = system: MV4-11; assay: cells; parameters: species or system MV4-11; U251; details: for viability at 10 µM: Homo sapiens, read-out: % viability; for % viability: 10 µM
Description: as §1

[3] = target: T1, recombinant His6-tagged SGF29 tandem …; assay: AlphaScreen or HTRF; AlphaScreen Histidine (Nickel Chelate) Detection Kit; 75 nM SGF29-TTD, 150 nM H3(1-18)K4me3-bio, 0.8% DMSO, acceptor/donor beads 20 ug/ml; 50 mM Hepes, 100 mM NaCl, 5 mM TCEP, pH 7.4; 25 C, 3 hours; signal blocked by the small molecule Cpd_DC60; details: both partners purified

Molecule | viability at 10 µM ([1]; U-251, 72 h) | viability at 10 µM ([1]; U-251, 144 h) | viability at 10 µM ([1]; U-251, 216 h) | viability at 10 µM ([2]; MV4-11, 72 h) | viability at 10 µM ([2]; MV4-11, 144 h) | viability at 10 µM ([2]; MV4-11, 216 h) | % viability ([1]; day 3, 72 h) | % viability ([1]; day 6, 144 h) | % viability ([1]; day 9, 216 h) | % viability ([2]; day 3, 72 h) | % viability ([2]; day 6, 144 h) | % viability ([2]; day 9, 216 h) | binding result [3]
Cc1ccc2nc(-c3ccc(N4C(=O)C5C6c7ccccc7C(c7ccccc76)C5C4=O)cc3)sc2c1 (stereo not shown) [compound 23, ZINC000008935041] | 87.4% | 48.7% | 11% | 41.6% | 14.8% | 4.43% |  |  |  |  |  |  | 
O=C(Cc1ccccc1)Nc1ccc2oc(-c3ccc4ccccc4c3)nc2c1 [compound 172, ZINC000001204199] | 108% | 107% | 112% | 114% | 101% | 78.6% |  |  |  |  |  |  | 
CCC[C@H](NC(=O)[C@@H]1[C@H]2CCC[C@H]2CN1C(=O)[C@@H](NC(=O)[C@@H](NC(=O)c1cnccn1)C1CCCCC1)C(C)(C)C)C(=O)C(=O)NC1CC1 [compound 76, Telaprevir (VX-950)] |  |  |  |  |  |  | 49.36% | 17.7% | 2.593% | 12.16% | 1.882% | 0.2706% | 
COc1cc2c(cc1-c1c(C)noc1C)ncc1[nH]c(=O)n([C@H](C)c3ccccn3)c12 [compound 78, I-BET151] | 14.5% | 0.804% | 0.227% | 0.356% | 0.218% | 0.24% |  |  |  |  |  |  | 
Nc1c(Br)cc([N+](=O)[O-])cc1Br [compound 240, ZINC000001641734] | 110% | 106% | 115% | 95.7% | 86.7% | 89% |  |  |  |  |  |  | 
CC(C)(C)NCCCNC(=O)c1cccc(Br)c1 [compound 31, UNC2170 trifluoroacetate] | 111% | 110% | 106% | 120% | 93.1% | 125% |  |  |  |  |  |  | 
ARTK(Me3)QTARKSTGGKAPRK (peptide, UniProt P68431 2-19, looked up, also: biotin, position not given here, histone H3, residues 1-18, trimethylated at lysine 4; source: synthetic peptide (Thermo Fisher Scientific)) [H3(1-18)K4me3-bio (biotinylated H3K4me3) peptide] |  |  |  |  |  |  |  |  |  |  |  |  | binds
